Where two headings read alike, the source gives them in different places.
Tested on: HBV viral load production from HepAD38 cells
Test: Viral production from HepAD38 cells: viral load in supernatant by qPCR of the HBV core sequence
Format: cell-based
Conditions: 5 days incubation, qPCR of supernatant HBV DNA vs DMSO control, read-out: viral load lowering EC50 (Activity)
Procedure, shortened: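 HepAD38 cells seeded at 50,000/well in tetracycline-free medium with 2% FBS, treated with compounds (final top concentration 10 μM) for 5 days at 37 °C. Supernatant HBV DNA quantified by TaqMan qPCR of core sequence against HBV DNA standards, relative to DMSO controls; EC50 by four-parameter logistic fit.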

[1] = Hepatitis B virus, HePAD38, 120 h

Structure (SMILES) | EC50 [1] [µM] | EC50 [µM]
Cc1nc(-c2ccccc2F)sc1[C@@H](NC(=O)C1CC(C(=O)Nc2ccc(F)c(Cl)c2)N(C)S(=O)(=O)N1)c1ccccc1 (single isomer, unassigned) [1101-ISOMER-B] | 0.1 to 10 | –
CN1C(C(=O)Nc2ccc(F)c(Cl)c2)CC(C(=O)NCCc2ccccc2)NS1(=O)=O (stereo not shown) [Compound 732] | 0.1 to 10 | –
CC(=O)N1CCC(NC(=O)C2CC(C(=O)Nc3ccc(F)c(Cl)c3)N(C)S(=O)(=O)N2)CC1 (stereo not shown) [Compound 851] | 0.1 to 10 | –
Cc1cnc(CNC(=O)C2CC(C(=O)Nc3ccc(F)c(Cl)c3)N(C)S(=O)(=O)N2)s1 (stereo not shown) [Compound 687] | < 0.05 | –
Cc1nc(-c2ccc(F)cc2)sc1CNC(=O)C1CC(C(=O)Nc2ccc(F)c(Cl)c2)N(C)S(=O)(=O)N1 (single isomer, unassigned) [1056-ISOMER-B, N3-(3-chloro-4-fluoro-phenyl)-N5-[[2-(4-fluorophenyl)-4-methyl-thiazol-5-yl]methyl]-2-methyl-1,1-dioxo-1,2,6-thiadiazinane-3,5-dicarboxamide] | – | < 0.05
Cc1nc(Cl)sc1CNC(=O)C1CC(C(=O)Nc2ccc(F)c(Cl)c2)N(C)S(=O)(=O)N1 (stereo not shown) [Compound 1031] | < 0.05 | –
CN1C(C(=O)Nc2ccc(F)c(Cl)c2)CC(C(=O)NCc2nc3ccccc3s2)NS1(=O)=O (single isomer, unassigned) [Compound 689-ISOMER-B, N5-(1,3-benzothiazol-2-ylmethyl)-N3-(3-chloro-4-fluoro-phenyl)-2-methyl-1,1-dioxo-1,2,6-thiadiazinane-3,5-dicarboxamide] | – | < 0.05
CN1C(C(=O)Nc2ccc(F)c(Cl)c2)CC(C(=O)N[C@H](c2ccccc2)c2cnc(Cl)s2)NS1(=O)=O (single isomer, unassigned) [1066-ISOMER-A] | 0.1 to 10 | –
Cc1csc(CNC(=O)C2CC(C(=O)Nc3ccc(F)c(Cl)c3)N(C)S(=O)(=O)N2)n1 (single isomer, unassigned) [Compound 686-ISOMER-A, N3-(3-chloro-4-fluoro-phenyl)-2-methyl-N5-[(4-methylthiazol-2-yl)methyl]-1,1-dioxo-1,2,6-thiadiazinane-3,5-dicarboxamide] | 0.1 to 10 | –
CN1C(C(=O)Nc2ccc(F)c(Cl)c2)CC(C(=O)NCc2ncc(-c3ccc(F)cc3)s2)NS1(=O)=O (single isomer, unassigned) [1153-ISOMER-A, N3-(3-chloro-4-fluoro-phenyl)-N5-[[5-(4-fluorophenyl)thiazol-2-yl]methyl]-2-methyl-1,1-dioxo-1,2,6-thiadiazinane-3,5-dicarboxamide] | < 0.05 | –
CN1C(C(=O)Nc2ccc(F)c(Cl)c2)CC(C(=O)NC(c2ccccc2)c2cnc(-c3ccccc3)s2)NS1(=O)=O (single isomer, unassigned) [1067-ISOMER-A, N3-(3-chloro-4-fluoro-phenyl)-2-methyl-1,1-dioxo-N5-[phenyl-(2-phenylthiazol-5-yl)methyl]-1,2,6-thiadiazinane-3,5-dicarboxamide] | < 0.05 | –
Cc1csc(CNC(=O)C2CC(C(=O)Nc3ccc(F)c(Cl)c3)N(C)S(=O)(=O)N2)n1 (single isomer, unassigned) [Compound 686-ISOMER-B, N3-(3-chloro-4-fluoro-phenyl)-2-methyl-N5-[(4-methylthiazol-2-yl)methyl]-1,1-dioxo-1,2,6-thiadiazinane-3,5-dicarboxamide] | – | < 0.05
CN1C(C(=O)Nc2ccc(F)c(Cl)c2)CC(C(=O)NCc2cnc(-c3ccccc3)s2)NS1(=O)=O (single isomer, unassigned) [Compound 691-ISOMER-A, N3-(3-chloro-4-fluoro-phenyl)-2-methyl-1,1-dioxo-N5-[(2-phenylthiazol-5-yl)methyl]-1,2,6-thiadiazinane-3,5-dicarboxamide] | 0.1 to 10 | –
CN(C)CCCCc1cnn(-c2ncc(CNC(=O)C3CC(C(=O)Nc4ccc(F)c(Cl)c4)N(C)S(=O)(=O)N3)s2)c1 (single isomer, unassigned) [1197-ISOMER-A, N3-(3-chloro-4-fluoro-phenyl)-N5-[[2-[4-[4-(dimethylamino)butyl]pyrazol-1-yl]thiazol-5-yl]methyl]-2-methyl-1,1-dioxo-1,2,6-thiadiazinane-3,5-dicarboxamide] | 0.1 to 10 | –
CN(C)CC(C)(C)COc1ccc(-c2ncc(CNC(=O)C3CC(C(=O)Nc4ccc(F)c(Cl)c4)N(C)S(=O)(=O)N3)s2)cc1 (single isomer, unassigned) [Compound 943-ISOMER-B, N3-(3-chloro-4-fluoro-phenyl)-N5-[[2-[4-[3-(dimethylamino)-2,2-dimethyl-propoxy]phenyl]thiazol-5-yl]methyl]-2methyl-1,1-dioxo-1,2,6-thiadiazinane-3,5-dicarboxamide] | – | 0.1 to 10
COc1ccc(CNC(=O)C2CC(C(=O)Nc3ccc(F)c(Cl)c3)N(C)S(=O)(=O)N2)cc1 (single isomer, unassigned) [Compound 717-ISOMER-A, N3-(3-chloro-4-fluoro-phenyl)-N5-[(4-methoxyphenyl)methyl]-2-methyl-1,1-dioxo-1,2,6-thiadiazinane-3,5-dicarboxamide] | < 0.05 | –
CN1C(C(=O)Nc2ccc(F)c(Cl)c2)CC(C(=O)NCC2CCCCC2)NS1(=O)=O (stereo not shown) [Compound 1160] | 0.1 to 10 | –

Structure (SMILES) | EC50 [1] [µM] | EC50 [µM]
CN1C(C(=O)Nc2ccc(F)c(Cl)c2)CC(C(=O)NCc2cccc(Cl)c2)NS1(=O)=O (stereo not shown) [Compound 730] | < 0.05 | –
CN1C(C(=O)Nc2ccc(F)c(Cl)c2)CC(C(=O)NCc2cnc(C3CCC(C)(C)C3)s2)NS1(=O)=O (stereo not shown) [Compound 1159] | 0.1 to 10 | –
C[C@@H](NC(=O)C1CC(C(=O)Nc2ccc(F)c(Cl)c2)N(C)S(=O)(=O)N1)C1CCCCC1 (stereo partly shown) [Compound 741] | 0.05 to 0.1 | –
COC(=O)N1CCC(NC(=O)C2CC(C(=O)Nc3ccc(F)c(Cl)c3)N(CC(F)(F)F)S(=O)(=O)N2)CC1 (single isomer, unassigned; isomer-a) [Compound 893-ISOMER-A, methyl 4-[[5-[(3-chloro-4-fluroo-phenyl)carbamoyl]-1,1-dioxo-6-(2,2,2-triflurooethyl)-1,2,6-thiadiazinane-3-carbonyl]amino]piperidine-1-carboxylate] | – | < 0.05
COc1ccccc1CNC(=O)C1CC(C(=O)Nc2ccc(F)c(Cl)c2)N(C)S(=O)(=O)N1 (stereo not shown) [Compound 822] | < 0.05 | –
CN1C(C(=O)Nc2ccc(F)c(Cl)c2)CC(C(=O)Nc2cn(-c3ccccc3)cn2)NS1(=O)=O (stereo not shown) [Compound 1116] | 0.05 to 0.1 | –
CCN1C(C(=O)Nc2ccc(F)c(Cl)c2)CC(C(=O)NC2CCN(C(=O)OC)CC2)NS1(=O)=O (single isomer, unassigned) [Compound 890-ISOMER-A, methyl 4-[[5-[(3-chloro-4-fluoro-phenyl)carbamoyl]-6-ethyl-1,1-dioxo-1,2,6-thiadiazinane-3-carbonyl]amino]piperidine-1-carboxylate] | < 0.05 | –
CN1C(C(=O)Nc2ccc(F)c(Cl)c2)CC(C(=O)NCc2sc(-c3ccccc3Cl)nc2C(F)(F)F)NS1(=O)=O (stereo not shown) [Compound 1064] | < 0.05 | –
COc1ccc2nc(CNC(=O)C3CC(C(=O)Nc4ccc(F)c(Cl)c4)N(C)S(=O)(=O)N3)sc2c1 (single isomer, unassigned) [1011-ISOMER-A, N3-(3-Chloro-4-fluoro-phenyl)-N5-[(6-methoxy-1,3-benzothiazol-2-yl)methyl]-2-methyl-1,1-dioxo-1,2,6-thiadiazinane-3,5-dicarboxamide] | – | 0.1 to 10
Cc1c(CNC(=O)C2CC(C(=O)Nc3ccc(F)c(Cl)c3)N(C)S(=O)(=O)N2)cnn1C (single isomer, unassigned) [Compound 740-ISOMER-B, N3-(3-chloro-4-fluoro-phenyl)-N5-[(1,5-dimethylpyrazol-4-yl)methyl]-2-methyl-1,1-dioxo-1,2,6-thiadiazinane-3,5-dicarboxamide] | – | 0.1 to 10
Cc1nc2c(s1)C(NC(=O)C1CC(C(=O)Nc3ccc(F)c(Cl)c3)N(C)S(=O)(=O)N1)CCC2 (stereo not shown) [Compound 918] | < 0.05 | –
CN1C(C(=O)Nc2ccc(F)c(Cl)c2)CC(C(=O)NC2CCN(c3ccnc(C4CC4)c3)CC2)NS1(=O)=O (stereo not shown) [Compound 1051] | < 0.05 | –
Cc1cccc(CNC(=O)C2CC(C(=O)Nc3ccc(F)c(Cl)c3)N(C)S(=O)(=O)N2)n1 (single isomer, unassigned) [Compound 716-ISOMER-A, N3-(3-chloro-4-fluoro-phenyl)-2-methyl-N5-[(6-methyl-2-pyridyl)methyl]-1,1-dioxo-1,2,6-thiadiazinane-3,5-dicarboxamide] | < 0.05 | –
CN1C(C(=O)Nc2ccc(F)c(Cl)c2)CC(C(=O)NCc2nccs2)NS1(=O)=O (stereo not shown) [Compound 684] | 0.1 to 10 | –
CN1C(C(=O)Nc2ccc(F)c(Cl)c2)CC(C(=O)NCc2ccccc2)NS1(=O)=O (single isomer, unassigned) [Compound 718-ISOMER-A, N5-benzyl-N3-(3-chloro-4-fluoro-phenyl)-2-methyl-1,1-dioxo-1,2,6-thiadiazinane-3,5-dicarboxamide] | < 0.05 | –
Cc1nc(-c2ccccc2F)sc1CNC(=O)C1CC(C(=O)Nc2ccc(F)c(Cl)c2)N(C)S(=O)(=O)N1 (single isomer, unassigned) [1016-ISOMER-B, N3-(3-chloro-4-fluoro-phenyl)-N5-[[2-(2-fluorophenyl)-4-methyl-thiazol-5-yl]methyl]-2-methyl-1,1-dioxo-1,2,6-thiadiazinane-3,5-dicarboxamide] | 0.05 to 0.1 | –
CN1C(C(=O)Nc2ccc(F)c(Cl)c2)CC(C(=O)NCc2sc(-c3ccccc3F)nc2C(F)(F)F)NS1(=O)=O (single isomer, unassigned) [1082-ISOMER-A, N3-(3-chloro-4-fluoro-phenyl)-N5-[[2-(2-fluorophenyl)-4-(trifluoromethyl)thiazol-5-yl]methyl]-2-methyl-1,1-dioxo-1,2,6-thiadiazinane-3,5-dicarboxamide] | < 0.05 | –

From US20230075856A1, “CYCLIC SULFAMIDE COMPOUNDS FOR TREATMENT OF HBV” (Assembly Biosciences, Inc., priority 2018, published 2023)
